From patent US7642051B2, “Screening methods for the identification of inhibitors of human immunodeficiency virus (HIV) viral protein R (Vpr) binding to the adenine nucleotide translocator (ANT)” (priority 2000, dated 2010)
“Also recorded” adds a separate entry of the source. Where two headings read alike, the source gives them in different places. Where no end group is shown, it is not given here.

Experiments:
[1] = target: T1, Vpr52-96-ANT interaction (Rattus norvegicus, UniProt Q05962); type: binding; conditions: BA 250 μM, Atr 50 μM, peptides 5 μM
T1 construct: from tissue; host or cells: rat heart (ANT)
T1 sequence (Q05962 2-298 limits assumed): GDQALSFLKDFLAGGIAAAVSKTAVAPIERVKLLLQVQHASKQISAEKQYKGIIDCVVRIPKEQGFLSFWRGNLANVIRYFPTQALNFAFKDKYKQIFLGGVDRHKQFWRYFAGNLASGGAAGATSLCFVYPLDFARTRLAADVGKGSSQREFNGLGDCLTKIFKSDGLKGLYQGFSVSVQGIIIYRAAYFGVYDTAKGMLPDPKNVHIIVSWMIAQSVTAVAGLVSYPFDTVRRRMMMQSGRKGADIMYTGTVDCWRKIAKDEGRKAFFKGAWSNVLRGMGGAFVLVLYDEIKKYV

[2] = target: T2, ANT-proteoliposomes (Rattus norvegicus, UniProt Q05962); type: binding
T2 construct: ANT is purified from rat heart and reconstituted in liposomes; from tissue; host or cells: rat heart
T2 sequence (Q05962 1-298): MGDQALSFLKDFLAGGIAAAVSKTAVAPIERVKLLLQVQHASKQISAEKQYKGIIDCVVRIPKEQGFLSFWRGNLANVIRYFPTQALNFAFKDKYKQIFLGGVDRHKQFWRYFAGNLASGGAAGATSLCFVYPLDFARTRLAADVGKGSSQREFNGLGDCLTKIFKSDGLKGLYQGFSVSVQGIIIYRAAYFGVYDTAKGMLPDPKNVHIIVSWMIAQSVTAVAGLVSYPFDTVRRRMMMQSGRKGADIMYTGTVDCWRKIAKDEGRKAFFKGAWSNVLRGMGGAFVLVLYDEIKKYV
Description: 1. Purification of ANT. ANT is purified from rat heart and reconstituted in liposomes according to the protocol described by Brenner et al., Oncogene, 2000.
2. Reconstitution of ANT in liposomes. ANT (0.03 mg/ml) is incorporated in liposomes composed of phosphatidylcholine and cardiolipine (PC:CL; 45:1; W: w; and 300 ng ANT per mg of lipids) in the presence of 0.3% n-octyl-β-D-pyranoside for 2 min. at room temperature. […] Then, the detergent is eliminated by dialyzing, overnight, the liposomes against the buffer 10 mM HEPES, 125 mM sucrose, pH7.4 at 4° C. (e.g.: about 11 of buffer per 1 ml liposomes).

[3] = system: purified mitochondria; assay: ΔΨm dissipation in purified mitochondria (JC-1 flow cytometry); type: biochemical; conditions: for inhibition of Vpr-induced ΔΨm loss in purified mitochondria: 5 μM CsA, 50 μM BA, 0.8 μM Bcl-2, 2 μM PA10, Vpr52-96 3 μM, 5 min
Description: C. […] Purified mitochondria were treated with 1 μM Vpr52-96 subjected to cytofluorometric determination of the percentage of mitochondria having a low ΔΨm using the ΔΨm-sensitive fluorochrome JC-1. In parallel, cytochrome c was immunodetected in the supernatant of mitochondria.
Numbers indicate the percentage of JC-1^high and JC-1^low mitochondria among ˜10^4 events.
E. Quantitation of the frequency of JC-1^low mitochondria (X±SD, n=5) after incubation with different Vpr-derived peptides.

[4] = system: purified mitochondria; assay: Binding of FITC-Vpr52-96 to purified mitochondria; conditions: pre-incubation 10 min
Description: Mitochondria were left unstained (insert in Co.) or exposed to the ΔΨm-insensitive mitochondrial dye MitoTracker® Green (75 nM), alone (MTG) or with 0.5 μM of FITC-Vpr52-96; green fluorescence), in combination with the ΔΨm-sensitive mitochondrial dye MitoTracker® Red (CMXRos; red Fluorescence) followed by cytofluorometric two-color analysis. Numbers indicate the percentage of mitochondria in each quadrant.
(§1) Mitochondria were pre-incubated 10 min. with the indicated inhibitors and the percentage of FITC-Vpr52-96-labelled mitochondria is determined as in A. C. […] Mitochondria were incubated with the indicated inhibitors, and then exposed for 30 min at RT with 5 μM biotinylated Vpr52-96. Mitochondria were lysed either after incubation with biotinylated Vpr52-96 (upper panel) or lysed before (lower panel) with Tris/HCl as described in materials and methods. Biotinylated Vpr52-96 complexed with its mitochondrial ligands was retained on avidin-agarose and subjected to immunoblot detection of ANT.

[5] = system: isolated mitochondria; assay: Electron microscopy of isolated mitochondria (matrix swelling); type: biochemical; conditions: for inhibition of Vpr-induced matrix swelling: Vpr52-96 3 μM, 0.8 μM Bcl-2 or 2 μM PA10
Source text: C. Ultrastructural effects of Vpr on isolated mitochondria.

[6] = target: T3, ANT (Rattus norvegicus, UniProt Q05962); type: biochemical
T3 construct: from tissue; host or cells: rat heart
T3 sequence (Q05962 whole entry, looked up): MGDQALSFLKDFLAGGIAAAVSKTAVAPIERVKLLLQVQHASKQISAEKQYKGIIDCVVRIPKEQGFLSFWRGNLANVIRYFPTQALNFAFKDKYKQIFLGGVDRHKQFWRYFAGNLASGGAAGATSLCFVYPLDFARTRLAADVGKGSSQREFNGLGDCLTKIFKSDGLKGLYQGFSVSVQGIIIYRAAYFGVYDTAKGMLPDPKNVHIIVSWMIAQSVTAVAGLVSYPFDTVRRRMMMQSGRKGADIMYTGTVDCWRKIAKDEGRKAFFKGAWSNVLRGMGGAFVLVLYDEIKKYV
Description: (§2) FIG. 3 presents electrophysiological properties of Vpr52-96 and ANT in planar lipid bilayers.
(§3) Single channel recordings were performed using the “Tip-Dip” technique. The recordings shown are representative for at least three independent determinations.
(§4) B. Statistical analysis of conductances obtained in A. Results were expressed as current distributions at different voltages. Conductances (γ; in picosiemens, pS) are calculated by division of current by voltage.

[7] = system: COS cells; assay: Vpr52-96-induced ΔΨm dissipation in intact microinjected cells; type: cell-based; conditions: Bcl-2 10 μM, PA10 2 μM microinjected
Source text: A. Vpr52-96-induced ΔΨm dissipation induced in intact cells.

[8] = system: ANT; conditions: 5 μM biotinylated Vpr52-96, 30 min
Description: as §1

[9] = target: Vpr52-96 (Human immunodeficiency virus type 1 group M subtype B, UniProt P69726)
[10] = target: T4, ANT (Rattus norvegicus, UniProt Q05962); type: binding; conditions: X±SD, n=5; read-out: calculated KD of the interaction of ANT with Vpr52-96
T4 construct: from tissue; host or cells: rat heart
Source text: A. Plasma surface resonance sensorgrams of the interaction of ANT with Vpr52-96, Vpr52-96[R73A,80A] or an irrelevant control (Co).
B. Langmuir isotherm determined at different concentrations of ANT on sensorgrams corrected by subtraction of the blank (sensorgrams obtained with Vpr52-96[R73A,80A]).

[11] = target: T4, ANT; type: biochemical; remark: listed apart in the source
Description: as §2, §3, §4

[12] = system: purified mitochondria; assay: Respirometry of purified mitochondria (respiratory control); type: biochemical; conditions: 10 min after 1 μM peptide; control mitochondria 5.3
Description: A. Oxygen consumption curves after addition of the indicated agents. Trace a: control mitochondria (no pretreatment). Trace b: mitochondria pretreated for 10 min with 1 μM Vpr52-96. Numbers along the traces are nmol of 02 consumed min^−1 mg^−1 protein.
B. Respiratory control (RC) values calculated by dividing oxygen consumption in the presence of CCCP by that measured with oligomycin (determined as in A), 10 min after addition of 1 μM of Vpr-derived peptides (mean values of 3 determinations).

[13] = target: T4, ANT; conditions: surface plasmon resonance, Jacotot et al. 2000; cited from earlier work
[14] = target: biotin-Vpr52-96 (biotinylated C-terminal moiety of HIV-1 Vpr) (HIV-1), P12520; assay: surface plasmon resonance, Langmuir isotherm, peptide on biotinylated Vpr52-96
[15] = target: T5, adenine nucleotide translocator (ANT), native purified, detergent-solubilized or reconstituted in liposomes / planar lipid bilayers (rat), Q05962; assay: cell-based or functional assay
T5 chain: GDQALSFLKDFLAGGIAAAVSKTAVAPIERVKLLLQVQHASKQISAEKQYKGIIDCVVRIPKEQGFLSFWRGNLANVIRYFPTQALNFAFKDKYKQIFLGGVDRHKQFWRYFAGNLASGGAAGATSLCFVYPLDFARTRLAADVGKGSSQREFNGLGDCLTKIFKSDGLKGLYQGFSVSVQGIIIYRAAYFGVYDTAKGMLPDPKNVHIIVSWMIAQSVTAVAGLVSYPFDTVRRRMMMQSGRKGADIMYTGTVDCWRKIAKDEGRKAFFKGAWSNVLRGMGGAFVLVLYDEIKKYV

[16] = target: T5, adenine nucleotide translocator (ANT), …; assay: flow cytometry of liposomes; FITC-Vpr52-96 on ANT-proteoliposomes

CO[C@H](C/C=C\C=C\CC/C=C/C[C@H](C)/C=C/C(=C\C(=O)O)CC(=O)O)/C(C)=C\C=C(/C)C(=O)O [BA, bongkrekic acid, reference compound]
modulation of the Vpr52-96-ANT interaction by ANT ligands and peptides [1]: reduces Vpr binding
effect on Vpr52-96 binding to membrane-associated ANT (ANT proteoliposomes) ([2]; BA 50 μM, Bcl-2 800 nM): inhibited
inhibition of Vpr-induced ΔΨm loss in purified mitochondria [3]: inhibited
effect on binding of Vpr52-96 to purified mitochondria [4]: partially reduced
inhibition of Vpr-induced matrix swelling [5]: inhibited

C=C1[C@@H]2CC[C@H]3[C@]4(C)C[C@H](O[C@@H]5O[C@H](CO)[C@@H](OS(=O)(=O)O)[C@H](OS(=O)(=O)O)[C@H]5OC(=O)CC(C)C)C[C@@H](C(=O)O)[C@H]4CC[C@]3(C2)[C@H]1O [Atr, atractyloside]
modulation of the Vpr52-96-ANT interaction by ANT ligands and peptides [1]: favors Vpr binding

Bcl-2: recombinant human Bcl-2 protein
effect on Vpr52-96 binding to membrane-associated ANT (ANT proteoliposomes) [2]: reduced Vpr52-96 binding
effect on formation of Vpr52-96 induced channels in ANT-containing lipid bilayers [6]: abolished the formation of Vpr52-96 induced channels
inhibition of Vpr-induced ΔΨm loss in purified mitochondria [3]: inhibited; also recorded: strongly reduced
prevention of Vpr effect on intact cells by microinjection [7]: prevented
effect on binding of Vpr52-96 to purified mitochondria [4]: failed to impair the binding
effect on affinity purification of ANT with biotinylated Vpr52-96, intact mitochondria [8]: reduced the Vpr52-96-mediated recovery of ANT
inhibition of Vpr-induced matrix swelling [5]: inhibited; also recorded: strongly reduced
binding of Bcl-2 to Vpr52-96 [9]: did not bind Vpr52-96

CC[C@H](C)[C@H](NC(=O)[C@H](C)NC(=O)[C@H](CCC(=O)O)NC(=O)[C@@H](NC(=O)CNC(=O)[C@H](C)NC(=O)[C@H](Cc1c[nH]c2ccccc12)NC(=O)[C@@H](NC(=O)[C@@H](N)CC(=O)O)[C@@H](C)O)C(C)C)C(=O)N[C@H](C(=O)N[C@@H](CCCNC(=N)N)C(=O)N[C@H](C(=O)N[C@@H](CC(C)C)C(=O)N[C@@H](CCC(N)=O)C(=O)N[C@@H](CCC(N)=O)C(=O)N[C@@H](CC(C)C)C(=O)N[C@@H](CC(C)C)C(=O)N[C@@H](Cc1ccccc1)C(=O)N[C@H](C(=O)N[C@@H](Cc1c[nH]cn1)C(=O)N[C@@H](Cc1ccccc1)C(=O)N[C@@H](CCCNC(=N)N)C(=O)N[C@H](C(=O)NCC(=O)N[C@@H](CS)C(=O)N[C@@H](CCCNC(=N)N)C(=O)N[C@@H](Cc1c[nH]cn1)C(=O)N[C@@H](CO)C(=O)N[C@@H](CCCNC(=N)N)C(=O)N[C@H](C(=O)NCC(=O)N[C@H](C(=O)N[C@H](C(=O)N[C@@H](CCCNC(=N)N)C(=O)N[C@@H](CCC(N)=O)C(=O)N[C@@H](CCCNC(=N)N)C(=O)N[C@@H](CCCNC(=N)N)C(=O)N[C@@H](C)C(=O)N[C@@H](CCCNC(=N)N)C(=O)N[C@@H](CC(N)=O)C(=O)NCC(=O)N[C@@H](C)C(=O)N[C@@H](CO)C(=O)N[C@@H](CCCNC(=N)N)C(=O)N[C@@H](CO)C(=O)O)[C@@H](C)O)C(C)C)[C@@H](C)CC)[C@@H](C)CC)[C@@H](C)CC)[C@@H](C)CC)[C@@H](C)CC [Vpr52-96]
Kd [10]: 0.0097 ± 0.0064 µM
Vpr52-96 binding to ANT liposomes compared to protein-free liposomes [2]: greatly facilitated
conductance of Vpr52-96-ANT channels without any further addition ([11]; as printed in Example 4): 190±2
channel formation in planar lipid bilayers without ANT ([11]; low doses (<1 nM), no ANT): incapable of forming channels
respiratory control (RC) value [12]: 1.1
timing of ΔΨm loss relative to cytochrome c release ([3]; Vpr52-96 1 μM): well before cytochrome c release can be detected
ultrastructural effect on mitochondria ([5]; 3 μM, 5 or 15 min): matrix swelling before OM rupture became apparent
affinity of Vpr C-terminus for purified ANT [13]: high affinity in the nanomolar range

B1: ANT-2-derived peptide ANT104-116 (peptide)
peptide: DKRTQFWRYFAGN
modifications: not checked
Kd [14]: 35 µM

B2: Vpr52-96, P12520 52-96 (peptide)
peptide: DTWAGVEAIIRILQQLLFIHFRIGCRHSRIGVTRQRRARNGASRS
modifications: not checked
conductance of Vpr52-96-ANT channels in the presence of Bax [15]: 245
conductance of channels in planar lipid bilayers [15]: 190 pS

B3: FITC-labeled Vpr52-96, P12520 52-96 (peptide)
peptide: DTWAGVEAIIRILQQLLFIHFRIGCRHSRIGVTRQRRARNGASRS
modifications: not fully specified
EC50 (read off the curve) [16]: 0.9 µM
